Measurements from patent US6548508B2, “Use of PDE V inhibitors for improved fecundity in mammals” (Pfizer, Inc., priority 2000, dated 2003).

Experiments:
CBA × DBA mice = assay: Embryo survival in CBA × DBA mice, i.p. dosing during gestation; format: in vivo; conditions: for % Embryo Survival: assessed day 12
Experimental: Female mice of the CBA strain (obtained from Charles River, UK) were crossed with male mice of the DBA strain (obtained from Charles River, UK) and treated i.p. with 3-ethyl-5-[5-(4-ethylpiperazin-1-ylsulphonyl)-2-n-propoxyphenyl]-2-(pyridin-2-yl)methyl-2,6-dihydro-7H-pyrazolo[4,3-d]pyrimidin-7-one at the rate of either 1 mg/kg or 3′mg/kg on days 1 to 8 of gestation. The mice were euthanised on day 12 of gestation and the numbers of viable and non-viable embryos were determined relative to corresponding control mice.
Female mice of the CBA strain (obtained from Charles River, UK) were crossed with male mice of the DBA strain (obtained from Charles River, UK) and treated i.p. with 3-ethyl-5-[5-(4-ethylpiperazin-1-ylsulphonyl)-2-n-propoxyphenyl]-2-(pyridin-2-yl)methyl-2,6-dihydro-7H-pyrazolo[4,3-d]pyrimidin-7-one at the rate of 1 mg/kg on days 1 to 4 or 4 to 8 of gestation. The mice were euthanised on day 12 of gestation and the numbers of viable and non-viable embryos were determined relative to corresponding control mice.

pregnant rats = assay: Birthweights of rat pups after s.c. dosing of pregnant rats throughout gestation; format: in vivo; conditions: for embryonic/foetal growth and birthweight (in words, FIG. 1): s.c. daily 0.3, 1 and 5 mg/kg, gestation days 1-21, pregnant rats; for % increase (birthweights of rat pups): pregnant rats n=10
Experimental: To evaluate the effects of cGMP PDE V inhibition on embryonic and foetal growth, 3-ethyl-5-[5-(4-ethylpiperazin-1-ylsulphonyl)-2-n-propoxyphenyl]-2-(pyridin-2-yl)methyl-2,6-dihydro-7H-pyrazolo[4,3-d]pyrimidin- 7-one was administered s.c. daily in an aqueous micelle formulation at the rate of 0.3, 1 and 5 mg/kg to pregnant rats. The results are illustrated in FIG. 1.
A comparative experiment using a similar protocol was carried out using (A) 3-ethyl-5-[5-(4-ethylpiperazin-1-ylsulphonyl)-2-n-propoxyphenyl]-2-(pyridin-2-yl)methyl-2,6-dihydro-7H-pyrazolo[4,3-d]pyrimidin-7-one and the Lilly-ICOS PDE V inhibitor (B) CILIAS/IC-351. The compounds were administered throughout gestation subcutaneously to pregnant rats (n=10) and the birthweights of their corresponding rat pups were measured.

Friesian cross heifers = assay: Intra-vaginal dosing of Friesian cross heifers: plasma progesterone and uterine horn histology; format: in vivo, cattle; conditions: intra-vaginally twice daily, 30 days, uterine horn cross-sections
Experimental: Twenty-seven (27) female Friesian cross heifers, approximately 24 months of age were allocated randomly to three treatment groups control, 50 mg and 250 mg of the PDE V inhibitor administered intra-vaginally twice daily. Oestrous was synchronised using two intramuscular injections of PGF2 alpha (Lutalyse™) administered 11 days apart. The PDE V inhibitor was administered intra-vaginally twice daily from day −3 of oestrus until day 6 of the following oestrus (30 days in total). Blood samples were collected daily, plasma was prepared as soon as possible and stored at −20 DEG C. and then analysed for progesterone. At the completion of the study (ie day 6 of the second oestrous period) the cattle were euthanised and the reproductive tract collected. A cross section of the left and right horns of each uterus was collected and stored in 10% Formalin and then analysed histologically.

Mini-pigs = assay: Model of uterine blood flow and mean arterial blood pressure in mini-pigs; format: in vivo; conditions: intravenous
Text: A model of uterine blood flow was established to assess the effects of PDE V inhibition on uterine flow and mean arterial blood pressure (MAP). Mini-pigs weighing approximately 30 kg were modified surgically. As a means of quantifying real time uterine blood flow a Transoinc blood flow probe was placed around either the left or right uterine artery. Catheters were inserted into a external jugular vein and a carotid artery for blood sampling/administration of compound and measurement of mean arterial blood pressure (MAP) respectively. Test compound was administered intravenously either during oestrous or the luteal phase of the reproductive cycle and the effects of PDE V inhibition on uterine blood flow and MAP were measured. The Y-axis for the two left hand bars is uterine blood flow (ml/min.), and for the two right hand bars is MAP (mmHg).

[1] = system: patients undergoing in vitro fertilisation (IVF) with prior poor endometrial response; conditions: Hum. Reprod., 2000, 15(4), 806-809; cited from earlier work
[2] = 0.3 mg/kg s.c. throughout gestation
[3] = 1 mg/kg s.c. throughout gestation
[4] = 5 mg/kg s.c. throughout gestation

## CCCOc1ccc(S(=O)(=O)N2CCN(CC)CC2)cc1-c1nc2c(CC)n(Cc3ccccn3)nc2c(=O)[nH]1 [3-ethyl-5-[5-(4-ethylpiperazin-1-ylsulphonyl)-2-n-propoxyphenyl]-2-(pyridin-2-yl)methyl-2,6-dihydro-7H-pyrazolo[4,3-d]pyrimidin-7-one]
CBA × DBA mice; days 1-4 or 4-8 of gestation
  rate of embryo survival (in words): improved the rate of embryo survival in both cases
CBA × DBA mice; days 1 to 8 of gestation, CBA×DBA mice
  rate of embryo survival and maintenance of pregnancy (in words): improves significantly the rate of embryo survival and the maintenance of pregnancy
Pregnant rats
  embryonic/foetal growth and birthweight (in words, FIG. 1): promotes embryonic and/or foetal growth and consequently increases birthweight

## CCCOc1ccc(S(=O)(=O)N2CCN(CC)CC2)cc1-c1nc2c(CC)n(Cc3ccccn3)nc2c(=O)[nH]1 [A, 3-ethyl-5-[5-(4-ethylpiperazin-1-ylsulphonyl)-2-n-propoxyphenyl]-2-(pyridin-2-yl)methyl-2,6-dihydro-7H-pyrazolo[4,3-d]pyrimidin-7-one]
Friesian cross heifers
  endometrial epithelial thickness relative to control (FIG. 5): increases endometrial epithelial thickness relative to control animals
Mini-pigs
  mean arterial blood pressure (MAP) (FIG. 2): No significant effect on mean arterial blood pressure
  uterine blood flow relative to control (FIG. 2): improves significantly uterine blood relative to control animals
CBA × DBA mice; 1 mg/kg i.p. daily, days 1-4 of gestation, control 54
  % Embryo Survival: 81%
CBA × DBA mice; 1 mg/kg i.p. daily, days 1-8 of gestation, control 51
  % Embryo Survival: 90%
CBA × DBA mice; 1 mg/kg i.p. daily, days 4-8 of gestation, control 54
  % Embryo Survival: 70%
CBA × DBA mice; 3 mg/kg i.p. daily, days 1-8 of gestation, control 51
  % Embryo Survival: 84%
Pregnant rats; [2]
  % increase (birthweights of rat pups): 2%
Pregnant rats; [3]
  % increase (birthweights of rat pups): 6%
Pregnant rats; [4]
  % increase (birthweights of rat pups): 10%
Pregnant rats; 10 mg/kg s.c. throughout gestation
  % increase (birthweights of rat pups): 12%
Pregnant rats; A versus B, s.c. throughout gestation
  comparison of effectiveness on birth weights of rat pups: more effective than compound B
Pregnant rats; listed as 3-ethyl-5-(5-(4-ethylpiperazin-1-ylsulphonyl)-2-n-propoxyphenyl)-2-(pyridin-2-yl)
  embryonic/foetal growth and birthweight (in words, FIG. 1): increases birthweights of rat puts

## CN1CC(=O)N2[C@H](c3ccc4c(c3)OCO4)c3[nH]c4ccccc4c3C[C@@H]2C1=O [B, (6R, 12aR)-2,3,6,7,12,12a-hexahydro-2-methyl-6-(3,4-methylenedioxyphenyl)-pyrazino[2′,1′:6,1]pyrido[3,4-b]indole-1,4-dione, reference compound]
Pregnant rats; [2]
  % increase (birthweights of rat pups): 0%
Pregnant rats; [3]
  % increase (birthweights of rat pups): 1%
Pregnant rats; [4]
  % increase (birthweights of rat pups): 5%

## CCCc1nn(C)c2c(=O)[nH]c(-c3cc(S(=O)(=O)N4CCN(C)CC4)ccc3OCC)nc12 [sildenafil, 5-[2-ethoxy-5-(4-methyl-1-piperazinylsulphonyl)phenyl]-1-methyl-3-n-propyl-1,6-dihydro-7H-pyrazolo[4,3-d]pyrimidin-7-one]
[1]
  uterine artery blood flow and endometrial development: may be effective for improving uterine artery blood flow and endometrial development
